Source: patent US20140296248A1, “METHODS AND COMPOSITIONS FOR PREDICTING RESISTANCE TO ANTICANCER TREATMENT” (Stichting het Nederlands Kanker Instiuut-Antoni van …, priority 2011, published 2014)
Entries after “also recorded” stand apart in the source; their conditions may differ.

Assays:
[1] = tested on: SK-CO-1 colorectal cancer cells (KRASV12); assay: Long-term colony formation assay in SK-CO-1 cells; type: cell-based, human; details: for effect of recombinant TGFβ on response of SK-CO-1 cells to AZD6244: TGFβ plus AZD6244, TGFβ-dosage dependent
Experimental: (§1) Cells were seeded into 6-well plates (2-5×10^4 cells/well) and cultured both in the absence and presence of drugs as indicated. More details are described in Huang et al., 2009 (Huang et al., 2009). All knockdown and overexpression experiments were done by retroviral or lentiviral infection. All relevant assays were performed independently at least three times.

ERK signaling = ERK signaling in MED12-suppressed cancer cells in presence of drugs; type: cell-based, human
Experimental: The cells were fixed, stained and photographed after 10 (untreated) or 28 days (treated). […] The cells were fixed, stained and photographed after 14 (untreated) or 28 days (treated). […] G) Colony formation assay of Huh-7 cells expressing pLKO control or shMED12 vectors (#4 and #5) were cultured in 2 μM sorafenib. The cells were fixed, stained and photographed after 14 (untreated) or 21 days (treated). […] Huh-7 cells expressing pLKO control or shMED12 vectors were grown in the absence or presence of 4 μM sorafenib for 6 hours and the cell lysates were harvested for western blotting analysis.

[2] = tested on: H3122 cells (EML4-ALK NSCLC); assay: Long-term colony formation / cell proliferation assay in H3122 cells; type: cell-based, human; details: for effect of recombinant TGFβ on crizotinib response of H3122 cells: TGFβ in combination with crizotinib, TGFβ-dosage dependent
Experimental: (§2) Single cell suspensions of the lung cancer cell lines were seeded into 6-well plates (2×10^4 cells/well) and cultured both in the absence and presence of the ALK inhibitors. At the endpoints of colony formation assays, cells were fixed with formaldehyde, stained with crystal violet (0.1% w/v) and photographed. All relevant assays were performed independently at least three times. All knockdown and overexpression experiments were done by retroviral or lentiviral infections.
(§3) Cells were seeded into 6-well plates (2-5×10^4 cells/well) and cultured both in the absence and presence of drugs as indicated. […] All knockdown and overexpression experiments were done by retroviral or lentiviral infection. All relevant assays were performed independently at least three times.

phospho-ERK [3] = assay: Western blotting of phospho-ERK in H3122 cells; type: cell-based, human; details: 20 nM NVP-TAE684, 24 hours
Experimental: (A) MED12^KD cells retain phospho-ERK levels in the presence of ALK inhibitor in EML4-ALK cells. H3122 cells expressing controls (pRS or shGFP) or shMED12 vectors were gown in the absence or presence of 20 nM NVP-TAE684 for 24 hours and the cell lysates were harvested for western blotting analysis. (B) SMARCE1^KD cells have elevated phospho-ERK in EML4-ALK cells. H3122 cells expressing controls (pRS or shGFP) or shSMARCE1 vectors were gown in the absence or presence of 20 nM NVP-TAE684 for 24 hours and the cell lysates were harvested for western blotting analysis. (C) MED12^KD cells have elevated phospho-ERK levels in EGFR mutant cells.
Given that loss of MED12 or SMARCE1 causes resistance to multiple tyrosine kinase inhibitors in NSCLC cell lines, Applicants asked whether the activity of downstream components of receptor tyrosine kinase signaling is altered. ERK is a key downstream component and its phosphorylation status positively correlates with its activation that can be determined by specific antibodies against the phosphorylated form of ERK. H3122 cells were infected with two independent controls shRNA vectors or shRNAs targeting either MED12 or SMARCE1 and confirmed loss of MED12 or SMARCE1 protein by immunoblotting (FIGS. 16A and B). […]

[4] = tested on: human NSCLC cell lines that harbor EML4-ALK translocations; details: Galkin 2007; Koivunen 2008; Soda 2007; cited from earlier work
[5] = tested on: A375 melanoma cells (BRAFV600E); assay: Long-term colony formation assay in A375 cells; type: cell-based, human; details: for drug response of MED12 knockdown A375 cells: suppression of MED12; for effect of recombinant TGFβ on response of A375 cells to PLX4032 and AZD6244: TGFβ plus PLX4032 or AZD6244, TGFβ-dosage dependent
Experimental: as §3

[6] = tested on: H1993 cells (MET-amplified NSCLC); assay: Long-term colony formation assay in H1993 cells; type: cell-based, human
Experimental: as §2, §3

[7] = tested on: EBC-1 cells (MET-amplified NSCLC); assay: Long-term colony formation assay in EBC-1 cells; type: cell-based, human
Experimental: as §2, §3

[8] = tested on: PC9 cells (EGFR delE746-A750 NSCLC); assay: Long-term colony formation / cell proliferation assay in PC9 cells; type: cell-based, human
Experimental: as §2, §3

[9] = tested on: H3255 cells (EGFR L858R NSCLC); assay: Long-term colony formation / cell proliferation assay in H3255 cells; type: cell-based, human
Experimental: as §2, §3

[10] = tested on: PC9 cells (EGFR delE746-A750 NSCLC); details: parental cells, low nanomolar concentrations; cited from earlier work
[11] = tested on: H3255 cells (EGFR L858R NSCLC); details: parental cells, low nanomolar concentrations; cited from earlier work
phospho-ERK [12] = assay: Western blotting of phospho-ERK in PC9 cells; type: cell-based, human; details: 25 nM gefitinib, 8 hours
Experimental: (A) Validation of independent shRNAs (in pLKO vector) targeting DABP2IP in PC9 cells. […] The cells were fixed, stained and photographed after 2 weeks (untreated) or 4 weeks (EGFR inhibitors treatment). (B) The knockdown ability of each of the shRNAs was measured by examining the DAB2IP mRNA levels by qRT-PCR. Error bars denote standard deviation (SD).
To validate the results of Applicants' focused shRNA mini-screen, Applicants individually introduced the five DAB2IP shRNAs from the TRC shRNA collection into PC9 cells (FIG. 14A). […] Next, Applicants addressed whether loss of DAB2IP affects the activity of downstream signaling components of the RAS pathway, in particular the phosphorylation (activation) status of ERK. […] Next, Applicants individually introduced the five NF1 shRNAs from the TRC shRNA collection into PC9 cells (FIG. 15A).

Huh-7 HCC cells = assay: Long-term colony formation assay in Huh-7 cells; type: cell-based, human
Experimental: as §1

## Cn1cnc2c(F)c(Nc3ccc(Br)cc3Cl)c(C(=O)NOCCO)cc21 [AZD6244, seluteminib]
[1]; parental cells
  sensitivity of SK-CO-1 cells: highly sensitive
[1]; shMED12, 0.5 μM AZD6244
  drug response of MED12 knockdown SK-CO-1 cells: conferred resistance
ERK signaling
  activation of ERK signaling by MED12 suppression in the presence of drug: persists

## Cc1cccc(-c2nn3c(c2-c2ccnc4ccc(C(N)=O)cc24)CCC3)n1 [LY2157299]
[2]; 1 μM LY2157299 alone, all cells
  proliferation under monotherapy, control and MED12KD H3122 cells: little effect

## COc1cc(N2CCC(N3CCN(C)CC3)CC2)ccc1Nc1ncc(Cl)c(Nc2ccccc2S(=O)(=O)C(C)C)n1 [NVP-TAE684]
[2]; shARID1A, 300 nM crizotinib or 2.5 nM NVP-TAE684
  drug response of ARID1A knockdown H3122 cells: confer resistance
[2]; shMED12 vectors, 300 nM crizotinib or 2.5 nM NVP-TAE684
  drug response of MED12 knockdown H3122 cells: confer resistance; also recorded: conferred resistance
[2]; shSMARCE1, 300 nM crizotinib or 2.5 nM NVP-TAE684
  drug response of SMARCE1 knockdown H3122 cells: confer resistance
phospho-ERK [3]; shMED12
  ERK phosphorylation in MED12 knockdown H3122 cells in presence of inhibitor: maintained higher levels of ERK phosphorylation
phospho-ERK [3]; shSMARCE1
  phosphorylated ERK in SMARCE1 knockdown H3122 cells in presence of inhibitor: maintained higher levels of phosphorylated ERK
[4]
  inhibition of EML4-ALK NSCLC cell lines: potently inhibit

## O=C(NOC[C@H](O)CO)c1ccc(F)c(F)c1Nc1ccc(I)cc1F [PD-0325901]
[5]
  drug response of MED12 knockdown A375 cells: conferred resistance

## CCCS(=O)(=O)Nc1ccc(F)c(C(=O)c2c[nH]c3ncc(Cl)cc23)c1F [PLX4720]
[5]
  drug response of MED12 knockdown A375 cells: conferred resistance

## C[C@@H](Oc1cc(-c2cnn(C3CCNCC3)c2)cnc1N)c1c(Cl)ccc(F)c1Cl [crizotinib]
[6]; shARID1A #1 and #2
  drug response of ARID1A knockdown H1993 cells: conferred resistance
[6]; shSMARCE1#1 and #2
  drug response of SMARCE1 knockdown H1993 cells: conferred resistance
[6]; shSMARCE1 plus SMARCE1-ND
  drug response of SMARCE1 knockdown H1993 cells reconstituted with SMARCE1-ND: restored the sensitivity
[7]; shSMARCE1#1 and #2
  drug response of SMARCE1 knockdown EBC-1 cells: conferred resistance
[7]; shSMARCE1 plus SMARCE1-ND
  drug response of SMARCE1 knockdown EBC-1 cells reconstituted with SMARCE1-ND: restored the sensitivity

## C#Cc1cccc(Nc2ncnc3cc(OCCOC)c(OCCOC)cc23)c1 [erlotinib]
[8]; shDAB2IP#1 and #3, 50 nM
  drug response of DAB2IP knockdown PC9 cells: conferred resistance
[8]; shNF1#2 and #5, 50 nM
  drug response of NF1 knockdown PC9 cells: conferred resistance
[9]; pRS and shGFP control cells
  drug response of control H3255 cells: effectively eradicated
[9]; shMED12
  drug response of MED12 knockdown H3255 cells: insensitive
[10]
  sensitivity of PC9 cells: exquisitely sensitive
[11]
  sensitivity of H3255 cells: exquisitely sensitive

## COc1cc2ncnc(Nc3ccc(F)c(Cl)c3)c2cc1OCCCN1CCOCC1 [gefitinib]
phospho-ERK [12]
  phosphorylation of ERK in shDAB2IP PC9 cells treated with drug: maintained
ERK signaling
  activation of ERK signaling by MED12 suppression in the presence of drug: persists

## CNC(=O)c1cc(Oc2ccc(NC(=O)Nc3ccc(Cl)c(C(F)(F)F)c3)cc2)ccn1 [sorafenib]
Huh-7 HCC cells; parental cells
  sensitivity of Huh-7 cells: sensitive
Huh-7 HCC cells; shMED12, 2 μM sorafenib
  drug response of MED12 knockdown Huh-7 cells: became resistant
ERK signaling
  activation of ERK signaling by MED12 suppression in the presence of drug: persists

## TGFβ
[2]
  effect of recombinant TGFβ on crizotinib response of H3122 cells: continued to proliferate
[2]; listed as Recombinant TGFβ
  effect of recombinant TGFβ on crizotinib response of H3122 cells: leads to resistance
[8]; TGFβ plus EGFR inhibitors
  effect of recombinant TGFβ on response of PC9 cells to EGFR inhibitors: conferred resistance
[9]; TGFβ plus EGFR inhibitors
  effect of recombinant TGFβ on response of H3255 cells to EGFR inhibitors: conferred resistance
[5]
  effect of recombinant TGFβ on response of A375 cells to PLX4032 and AZD6244: dosage dependent resistance
[5]; listed as Recombinant TGFβ
  effect of recombinant TGFβ on response of A375 cells to PLX4032 and AZD6244: leads to resistance
[5]; TGFβ treatment alone
  proliferation of A375 cells, recombinant TGFβ alone: growth inhibition
[1]
  effect of recombinant TGFβ on response of SK-CO-1 cells to AZD6244: dosage dependent resistance
[1]; listed as Recombinant TGFβ
  effect of recombinant TGFβ on response of SK-CO-1 cells to AZD6244: leads to resistance
Huh-7 HCC cells; TGFβ treatment alone
  proliferation of Huh-7 cells, recombinant TGFβ alone: growth inhibition
